{
  "source": "paper PMC5551460",
  "about": "(Cell chemical biology, 2017)",
  "key": {"FER [1]": {"biological_target": "T1, FER (Homo sapiens, UniProt P16591)", "T1 sequence (P16591 whole entry)": "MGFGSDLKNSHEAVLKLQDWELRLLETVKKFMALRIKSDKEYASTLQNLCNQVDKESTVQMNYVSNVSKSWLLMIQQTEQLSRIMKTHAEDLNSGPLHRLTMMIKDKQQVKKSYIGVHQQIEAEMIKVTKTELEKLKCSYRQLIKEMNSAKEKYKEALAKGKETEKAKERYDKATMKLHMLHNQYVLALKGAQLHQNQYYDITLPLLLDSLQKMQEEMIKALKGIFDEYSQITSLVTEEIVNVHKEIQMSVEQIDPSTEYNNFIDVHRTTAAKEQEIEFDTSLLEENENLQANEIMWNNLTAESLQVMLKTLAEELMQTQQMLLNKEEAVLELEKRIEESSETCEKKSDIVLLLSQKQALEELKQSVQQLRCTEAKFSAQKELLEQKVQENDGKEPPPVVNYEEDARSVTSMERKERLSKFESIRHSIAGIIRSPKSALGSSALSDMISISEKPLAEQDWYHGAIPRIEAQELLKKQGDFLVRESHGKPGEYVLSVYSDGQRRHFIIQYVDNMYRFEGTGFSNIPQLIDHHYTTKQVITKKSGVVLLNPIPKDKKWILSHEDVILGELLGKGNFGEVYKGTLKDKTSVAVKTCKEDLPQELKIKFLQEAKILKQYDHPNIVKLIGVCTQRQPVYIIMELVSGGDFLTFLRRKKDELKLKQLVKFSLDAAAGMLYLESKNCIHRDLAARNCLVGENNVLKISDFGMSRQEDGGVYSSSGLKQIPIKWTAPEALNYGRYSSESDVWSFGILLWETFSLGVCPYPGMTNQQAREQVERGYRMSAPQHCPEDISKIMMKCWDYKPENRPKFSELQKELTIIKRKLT", "assay": "ATP acyl phosphate probe competition, SILAC LC-MS", "format": "cell-based"}, "DGKα": {"biological_target": "DGKα (Rattus norvegicus, UniProt P51556)", "sequence (P51556 whole entry)": "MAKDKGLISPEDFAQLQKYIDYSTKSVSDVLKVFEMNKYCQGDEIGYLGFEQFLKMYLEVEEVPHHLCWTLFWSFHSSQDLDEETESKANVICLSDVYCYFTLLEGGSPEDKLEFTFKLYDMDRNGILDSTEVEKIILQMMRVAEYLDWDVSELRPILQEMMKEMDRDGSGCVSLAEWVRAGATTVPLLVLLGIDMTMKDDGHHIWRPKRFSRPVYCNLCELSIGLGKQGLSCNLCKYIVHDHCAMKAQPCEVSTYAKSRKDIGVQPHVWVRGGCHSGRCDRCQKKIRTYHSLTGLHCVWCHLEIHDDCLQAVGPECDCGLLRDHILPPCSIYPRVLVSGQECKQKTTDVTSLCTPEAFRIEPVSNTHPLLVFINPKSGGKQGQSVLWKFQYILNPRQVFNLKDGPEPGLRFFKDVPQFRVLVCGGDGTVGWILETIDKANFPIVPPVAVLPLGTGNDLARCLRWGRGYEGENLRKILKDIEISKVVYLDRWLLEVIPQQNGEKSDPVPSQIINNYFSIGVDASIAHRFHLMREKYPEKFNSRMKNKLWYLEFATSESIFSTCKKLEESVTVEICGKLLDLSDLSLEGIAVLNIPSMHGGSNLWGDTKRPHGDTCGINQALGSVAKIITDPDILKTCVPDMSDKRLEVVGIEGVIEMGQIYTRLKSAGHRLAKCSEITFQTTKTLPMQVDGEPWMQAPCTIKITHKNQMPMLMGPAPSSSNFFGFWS", "assay": "ADP-Glo DAG phosphorylation assay in lysate", "format": "biochemical"}, "FER [2]": {"biological_target": "T1, FER", "assay": "free ATP competition with ATP acyl phosphate probe, SILAC LC-MS", "format": "cell-based"}, "DGKζ": {"biological_target": "DGKζ (Homo sapiens, UniProt Q13574)", "sequence (Q13574 whole entry)": "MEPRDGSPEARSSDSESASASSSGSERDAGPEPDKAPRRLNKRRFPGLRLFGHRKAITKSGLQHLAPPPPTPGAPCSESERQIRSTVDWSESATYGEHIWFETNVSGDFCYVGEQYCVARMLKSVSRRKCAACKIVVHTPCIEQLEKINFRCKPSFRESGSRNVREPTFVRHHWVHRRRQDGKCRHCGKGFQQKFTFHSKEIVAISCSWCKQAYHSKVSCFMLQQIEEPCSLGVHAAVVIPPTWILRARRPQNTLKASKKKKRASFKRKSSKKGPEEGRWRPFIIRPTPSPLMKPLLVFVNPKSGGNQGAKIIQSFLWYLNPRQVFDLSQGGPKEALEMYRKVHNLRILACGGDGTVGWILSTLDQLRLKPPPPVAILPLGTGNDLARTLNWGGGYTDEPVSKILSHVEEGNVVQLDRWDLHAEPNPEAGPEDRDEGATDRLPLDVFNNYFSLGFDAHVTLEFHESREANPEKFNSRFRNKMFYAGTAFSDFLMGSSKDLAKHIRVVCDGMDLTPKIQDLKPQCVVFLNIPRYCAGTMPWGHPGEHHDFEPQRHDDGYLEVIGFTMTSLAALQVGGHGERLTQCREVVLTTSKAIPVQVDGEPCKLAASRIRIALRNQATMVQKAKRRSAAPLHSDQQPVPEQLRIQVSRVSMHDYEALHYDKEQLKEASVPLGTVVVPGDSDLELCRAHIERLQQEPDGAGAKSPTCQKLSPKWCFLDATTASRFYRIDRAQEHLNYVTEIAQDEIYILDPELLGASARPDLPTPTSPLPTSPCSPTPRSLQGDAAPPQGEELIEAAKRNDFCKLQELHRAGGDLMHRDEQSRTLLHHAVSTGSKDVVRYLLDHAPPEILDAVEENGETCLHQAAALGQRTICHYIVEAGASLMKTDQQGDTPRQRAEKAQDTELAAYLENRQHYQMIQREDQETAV", "assay": "free ATP", "format": "cell-based"}, "DGKκ": {"biological_target": "T2, DGKκ (Homo sapiens, UniProt Q5KSL6)", "T2 sequence (Q5KSL6 1-1271)": "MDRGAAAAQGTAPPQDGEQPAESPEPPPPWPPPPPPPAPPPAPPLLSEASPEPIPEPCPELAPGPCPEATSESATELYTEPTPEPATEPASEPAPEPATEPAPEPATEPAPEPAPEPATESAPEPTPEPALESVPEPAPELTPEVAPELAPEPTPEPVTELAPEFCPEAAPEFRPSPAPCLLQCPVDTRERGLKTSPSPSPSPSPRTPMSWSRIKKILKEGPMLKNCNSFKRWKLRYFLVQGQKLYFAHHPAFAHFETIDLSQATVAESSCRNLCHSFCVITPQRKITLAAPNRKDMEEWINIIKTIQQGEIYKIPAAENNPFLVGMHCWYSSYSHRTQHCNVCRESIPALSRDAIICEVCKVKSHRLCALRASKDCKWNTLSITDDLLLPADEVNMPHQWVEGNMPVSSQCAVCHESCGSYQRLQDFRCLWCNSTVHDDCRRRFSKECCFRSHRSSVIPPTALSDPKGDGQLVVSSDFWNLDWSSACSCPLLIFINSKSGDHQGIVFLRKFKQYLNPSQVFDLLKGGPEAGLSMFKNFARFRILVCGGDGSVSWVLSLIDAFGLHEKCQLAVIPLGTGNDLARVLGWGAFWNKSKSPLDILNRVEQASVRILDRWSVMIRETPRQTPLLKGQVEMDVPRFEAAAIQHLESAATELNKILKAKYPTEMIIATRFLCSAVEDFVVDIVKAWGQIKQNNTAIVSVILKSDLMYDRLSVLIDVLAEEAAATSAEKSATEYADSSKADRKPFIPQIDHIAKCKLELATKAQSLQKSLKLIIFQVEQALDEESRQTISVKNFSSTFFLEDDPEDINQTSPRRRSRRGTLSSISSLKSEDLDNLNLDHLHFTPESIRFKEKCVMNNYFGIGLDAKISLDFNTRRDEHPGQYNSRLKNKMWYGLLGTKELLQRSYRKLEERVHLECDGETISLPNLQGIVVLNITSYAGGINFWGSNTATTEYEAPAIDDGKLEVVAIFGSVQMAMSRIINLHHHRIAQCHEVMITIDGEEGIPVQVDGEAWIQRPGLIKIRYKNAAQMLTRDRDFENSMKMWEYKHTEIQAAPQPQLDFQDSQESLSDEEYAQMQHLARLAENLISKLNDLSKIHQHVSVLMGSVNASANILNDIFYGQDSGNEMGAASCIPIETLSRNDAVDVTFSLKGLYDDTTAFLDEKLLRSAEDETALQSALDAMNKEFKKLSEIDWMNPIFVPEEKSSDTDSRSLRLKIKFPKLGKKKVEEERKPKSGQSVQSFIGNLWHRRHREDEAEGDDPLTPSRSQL", "assay": "free ATP", "format": "cell-based"}, "DGKθ": {"biological_target": "T3, DGKθ (Homo sapiens, UniProt P52824)", "T3 sequence (P52824 1-942)": "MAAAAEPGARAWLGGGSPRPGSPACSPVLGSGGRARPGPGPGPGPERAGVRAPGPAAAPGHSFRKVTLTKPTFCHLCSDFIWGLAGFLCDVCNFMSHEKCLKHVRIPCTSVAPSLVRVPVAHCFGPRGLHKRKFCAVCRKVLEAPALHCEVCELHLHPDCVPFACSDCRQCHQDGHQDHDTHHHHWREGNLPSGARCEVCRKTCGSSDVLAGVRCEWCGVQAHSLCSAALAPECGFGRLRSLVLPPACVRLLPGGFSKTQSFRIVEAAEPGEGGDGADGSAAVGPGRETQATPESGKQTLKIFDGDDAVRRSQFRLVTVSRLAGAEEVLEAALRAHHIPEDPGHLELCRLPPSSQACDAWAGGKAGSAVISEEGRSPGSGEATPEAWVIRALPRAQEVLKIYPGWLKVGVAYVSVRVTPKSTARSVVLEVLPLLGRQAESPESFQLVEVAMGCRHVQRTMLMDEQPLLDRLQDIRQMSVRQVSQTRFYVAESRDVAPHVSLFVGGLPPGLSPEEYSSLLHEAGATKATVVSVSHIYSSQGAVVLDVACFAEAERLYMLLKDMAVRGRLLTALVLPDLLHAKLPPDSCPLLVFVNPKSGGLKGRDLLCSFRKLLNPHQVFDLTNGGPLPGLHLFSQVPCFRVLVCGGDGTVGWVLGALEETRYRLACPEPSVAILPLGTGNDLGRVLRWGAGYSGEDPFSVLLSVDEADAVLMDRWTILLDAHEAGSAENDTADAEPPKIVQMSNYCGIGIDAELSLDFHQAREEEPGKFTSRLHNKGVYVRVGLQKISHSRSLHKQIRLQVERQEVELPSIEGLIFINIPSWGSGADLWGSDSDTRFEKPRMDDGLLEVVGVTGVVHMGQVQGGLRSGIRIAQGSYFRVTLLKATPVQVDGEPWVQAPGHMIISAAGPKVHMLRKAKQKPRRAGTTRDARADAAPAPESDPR", "assay": "free ATP", "format": "cell-based"}},
  "data": [
    {"smiles": "Cc1nc2sccn2c(=O)c1CCN1CCC(=C(c2ccc(F)cc2)c2ccc(F)cc2)CC1", "note": "[ritanserin]", "values": [
      {"measurement": "ATP acyl phosphate probe competition, SILAC LC-MS (100 μM compound, SR = 7.9)", "setting": "FER [1]", "value": 7.9}
    ]},
    {"smiles": "Fc1ccc(C(=C2CCNCC2)c2ccc(F)cc2)cc1", "note": "[RF001]", "values": [
      {"measurement": "IC50", "setting": "DGKα", "value": 223, "unit": "µM"}
    ]},
    {"smiles": "Nc1ncnc2c1ncn2[C@@H]1O[C@H](COP(=O)(O)OP(=O)(O)OP(=O)(O)O)[C@@H](O)[C@H]1O", "note": "[ATP]", "values": [
      {"measurement": "free ATP competition with ATP acyl phosphate probe, SILAC LC-MS", "setting": "FER [2]", "value": 19.3},
      {"measurement": "free ATP (1 mM) competition with ATP acyl phosphate probe, SILAC LC-MS", "setting": "DGKζ", "value": 16.7},
      {"measurement": "free ATP (1 mM) competition with ATP acyl phosphate probe, SILAC LC-MS", "setting": "DGKκ", "value": 15.0},
      {"measurement": "free ATP (1 mM) competition with ATP acyl phosphate probe, SILAC LC-MS", "setting": "DGKθ", "value": 14.4}
    ]}
  ]
}
